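96-well plates; 48 h exposure; 5 concentrations. Endpoints by linear interpolation between flanking doses. Not reached: highest tested concentration assigned. TGI: concentration producing complete growth inhibition.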

Among the test systems are SF-539 CNS; RPMI-8226 leukemia; RXF 393 renal; T-47D breast; U251 CNS; SNB-19 CNS; M14 melanoma; MCF7 breast; MDA-N; MOLT-4 leukemia.
Holding throughout (assay): growth of human tumour cells (NCI), 48 h

For `CCC1CCC2c3c([nH]c4ccccc34)C3C(=O)N(c4ccc(OC)cc4)C(=O)C3C2C1` (stereo not given), the TGI was over 100 µM in the test with SF-539 CNS; over 100 µM with RPMI-8226 leukemia; over 100 µM with RXF 393 renal; 55.8 µM in the test on T-47D breast; 36.2 µM in the test with U251 CNS; 74.9 µM with SNB-19 CNS. Moreover, the TGI was over 100 µM with M14 melanoma, over 100 µM with MCF7 breast, over 100 µM in the test on MDA-N and 32.5 µM with MOLT-4 leukemia.
`O=C(NCc1cccnc1)C(=O)NCc1cccnc1`: the TGI with SF-539 CNS, in the test with RPMI-8226 leukemia, with RXF 393 renal, in the test on T-47D breast, in the test with U251 CNS and with SNB-19 CNS was over 100 µM throughout. Further, the TGI with M14 melanoma, in the test on MCF7 breast, with MDA-N and in the test on MOLT-4 leukemia was over 100 µM each time.
As to `O=C1C(=Cc2ccccc2[N+](=O)[O-])N=C(c2ccccc2)N1n1c(-c2ccccc2)nc2ccccc2c1=O`, the TGI in the test on SF-539 CNS was over 100 µM; in the test on RPMI-8226 leukemia it was 66.6 µM; in the test on RXF 393 renal, 56.2 µM; in the test with T-47D breast, 62.6 µM; in the test on U251 CNS, over 100 µM; in the test with SNB-19 CNS it was over 100 µM. The TGI is over 100 µM with M14 melanoma, 52.4 µM with MCF7 breast, over 100 µM in the test with MDA-N and 70.4 µM with MOLT-4 leukemia.
With `C=C(C(=O)OC)[C@H]1CC/C(C)=C/CC/C(C)=C/CC[C@@]2(C)O[C@@H]2C1`, the TGI in the test with SF-539 CNS was 32.2 µM; in the test on RPMI-8226 leukemia it was 32.8 µM; in the test with RXF 393 renal, 28.8 µM; with T-47D breast it was 44.7 µM; in the test with U251 CNS, 44 µM; with SNB-19 CNS, over 100 µM. In addition, the TGI in the test on M14 melanoma worked out at 46.5 µM; in the test with MCF7 breast it was 37.8 µM; with MDA-N, 36.4 µM; with MOLT-4 leukemia it was 35.5 µM.
As for `O=c1oc2ccccc2c(O)c1Cc1cccc(Cc2c(O)c3ccccc3oc2=O)c1`, the TGI in the test on SF-539 CNS, with RPMI-8226 leukemia, with RXF 393 renal, in the test on T-47D breast, with U251 CNS and in the test on SNB-19 CNS was over 100 µM in each case. Further, the TGI in the test with M14 melanoma, in the test with MCF7 breast, with MDA-N and in the test on MOLT-4 leukemia was over 100 µM each time.
Regarding `N#Cc1c(C#N)c(-c2ccccc2)n(/N=C\c2ccccc2)c1N`, the TGI in the test on SF-539 CNS was 55.1 µM; in the test on RPMI-8226 leukemia, 40.1 µM; in the test on RXF 393 renal, 70.5 µM; in the test on T-47D breast, 29.1 µM; with U251 CNS it was 47.4 µM; in the test with SNB-19 CNS, over 100 µM. For the same compound, the TGI was over 100 µM in the test on M14 melanoma, over 100 µM in the test on MCF7 breast, over 100 µM with MDA-N and 30.9 µM with MOLT-4 leukemia.
With `COc1ccc(C(C)NNC(=O)c2ccncc2)cc1F` (stereo not given), the TGI in the test with SF-539 CNS, in the test on RPMI-8226 leukemia, in the test with RXF 393 renal, in the test on T-47D breast, in the test with U251 CNS and with SNB-19 CNS was over 100 µM in each case. The TGI in the test on M14 melanoma, in the test with MCF7 breast, in the test with MDA-N and with MOLT-4 leukemia was over 100 µM in each case.
With `Cc1cccc2c1C(=O)[C@@](C)([C@]1(C)Nc3cccc(C)c3C1=O)N2`, the TGI in the test on SF-539 CNS, in the test on RPMI-8226 leukemia, with RXF 393 renal, with T-47D breast, in the test with U251 CNS and in the test on SNB-19 CNS was over 100 µM each time. The TGI with M14 melanoma, in the test with MCF7 breast, in the test on MDA-N and with MOLT-4 leukemia was over 100 µM each time.
On to `CN(C)c1ccc(/C=C2\C[C@H]3[C@@H]4CCc5cc(O)ccc5[C@H]4CC[C@]3(C)C2=O)cc1`, for which the TGI with SF-539 CNS was 62.8 µM; in the test with RPMI-8226 leukemia, over 100 µM; in the test on RXF 393 renal, over 100 µM; with T-47D breast, over 100 µM; with U251 CNS it was over 100 µM; with SNB-19 CNS it was over 100 µM. Moreover, the TGI with M14 melanoma, in the test on MCF7 breast, in the test with MDA-N and in the test with MOLT-4 leukemia was over 100 µM throughout.
For `O=C(NC/C=C/Br)NC1CCNc2ccccc21` (stereo not given), the TGI was 45.8 µM in the test with SF-539 CNS; 58.7 µM in the test with RPMI-8226 leukemia; over 100 µM with RXF 393 renal; 93.9 µM in the test on T-47D breast; over 100 µM in the test with U251 CNS; over 100 µM in the test on SNB-19 CNS. Moreover, the TGI with M14 melanoma is 34.5 µM; in the test with MCF7 breast, 47.9 µM; with MDA-N, over 100 µM; in the test with MOLT-4 leukemia, 95.4 µM.
On to `COC(=O)C1=C(C)NC2(C)OC(C)(O)C(C(C)=O)C12C(C)=O` (stereo not given), for which the TGI in the test on SF-539 CNS was 57.5 µM; in the test on RPMI-8226 leukemia it was over 100 µM; in the test with RXF 393 renal, over 100 µM; with T-47D breast, over 100 µM; with U251 CNS, over 100 µM; in the test on SNB-19 CNS it was over 100 µM. Also, the TGI with M14 melanoma, with MCF7 breast, in the test on MDA-N and with MOLT-4 leukemia was over 100 µM throughout.
Take `CN(C)C=Nc1nncc2n[nH]nc12`: the TGI in the test with SF-539 CNS, in the test with RPMI-8226 leukemia, with RXF 393 renal, in the test with T-47D breast, in the test with U251 CNS and in the test with SNB-19 CNS was over 100 µM each time. Besides, the TGI in the test on M14 melanoma, in the test on MCF7 breast, in the test on MDA-N and in the test with MOLT-4 leukemia was over 100 µM each time.
Take `Nc1ccc(-c2nc3ccccc3s2)cc1`: the TGI with SF-539 CNS was 45.1 µM; in the test with RPMI-8226 leukemia, 61.1 µM; in the test on RXF 393 renal, 33.5 µM; in the test on T-47D breast, 65.5 µM; in the test on U251 CNS, 31.9 µM; with SNB-19 CNS, 61.5 µM. The TGI with M14 melanoma turned out to be 34 µM; in the test with MCF7 breast, 39.4 µM; in the test with MDA-N it was 35.2 µM; with MOLT-4 leukemia it was 70.3 µM.
`O=c1/c(=C/c2ccc(-c3ccc(Cl)cc3Cl)o2)sc2n1[C@@H](c1ccc3c(c1)OCO3)C=C(c1cc(F)c(Cl)cc1Cl)N=2`: the TGI with SF-539 CNS is over 100 µM; in the test on RPMI-8226 leukemia, 88 µM; in the test with RXF 393 renal, over 100 µM; in the test with T-47D breast, over 100 µM; in the test on U251 CNS, over 100 µM; with SNB-19 CNS it was 95.4 µM. Further, the TGI with M14 melanoma, in the test on MCF7 breast, with MDA-N and with MOLT-4 leukemia was over 100 µM in each case.
On to `COC(=O)C[C@H](CCSC)NC(=O)C[C@H](CCSC)NC(=O)C[C@H](CCSC)NC(=O)OC(C)(C)C`, for which the TGI in the test with SF-539 CNS is 54.1 µM; in the test with RPMI-8226 leukemia, over 100 µM; in the test with RXF 393 renal, 33.6 µM; in the test with T-47D breast, over 100 µM; in the test on U251 CNS, 56 µM; in the test on SNB-19 CNS, 51.5 µM. Further, the TGI in the test on M14 melanoma, in the test with MCF7 breast, in the test with MDA-N and in the test with MOLT-4 leukemia was over 100 µM in each case.
Take `COc1ccc(C2NC(=O)Nc3c2c(=O)oc2c3ccc3ccccc32)cc1` (stereo not given): the TGI in the test on SF-539 CNS, with RPMI-8226 leukemia, in the test on RXF 393 renal, in the test on T-47D breast, in the test with U251 CNS and with SNB-19 CNS was over 100 µM in each case. Moreover, the TGI in the test on M14 melanoma, in the test on MCF7 breast, in the test on MDA-N and in the test with MOLT-4 leukemia was over 100 µM in each case.
As for `COC(=O)C1[C@H](C(=O)OC)C1(Br)CBr` (stereo not given in full), the TGI in the test with SF-539 CNS, in the test with RPMI-8226 leukemia, with RXF 393 renal, in the test on T-47D breast, with U251 CNS and with SNB-19 CNS was over 100 µM each time. The TGI in the test on M14 melanoma, in the test with MCF7 breast, in the test on MDA-N and in the test on MOLT-4 leukemia was over 100 µM throughout.
For `COC1=CC(=O)c2c(cc(COP(=O)(N(C)CCBr)N(C)CCBr)n2C)C1=O`, the TGI in the test on SF-539 CNS turned out to be 0.339 µM; with RPMI-8226 leukemia, 4.11 µM; in the test on RXF 393 renal, 1.95 µM; in the test on T-47D breast it was 33 µM; in the test with U251 CNS it was 8.43 µM; in the test with SNB-19 CNS, 14.7 µM. For the same compound, the TGI in the test on M14 melanoma is 2.56 µM; in the test on MCF7 breast it was 8.42 µM; with MDA-N it was 2.77 µM; in the test on MOLT-4 leukemia, over 100 µM.
Turning to `C=CCn1c(=O)c2ccccc2[n+]2c(-c3cccc([N+](=O)[O-])c3)csc12`, the TGI in the test with SF-539 CNS is over 100 µM; in the test with RPMI-8226 leukemia it was over 100 µM; in the test on RXF 393 renal, over 100 µM; with T-47D breast, 72.8 µM; in the test with U251 CNS, over 100 µM; in the test on SNB-19 CNS, over 100 µM. The TGI in the test with M14 melanoma, with MCF7 breast, in the test with MDA-N and with MOLT-4 leukemia was over 100 µM each time.
On to `Cc1nnc2sc(-c3ccc([N+](=O)[O-])o3)nn12`, for which the TGI in the test on SF-539 CNS stood at 18.2 µM; in the test with RPMI-8226 leukemia, 34.7 µM; with RXF 393 renal, 25.9 µM; in the test on T-47D breast, 62.7 µM; in the test on U251 CNS it was 27.9 µM; in the test with SNB-19 CNS, 35.3 µM. The TGI with M14 melanoma turned out to be 21.9 µM; with MCF7 breast, 26.5 µM; in the test on MDA-N, 19.4 µM; with MOLT-4 leukemia, 13.5 µM.
